Measured values from patent publication US20090035298A1 (priority 2007, published 2009).
Several values for one entry are separate records, joined by “and”; a condition that tells them apart may be missing. Equal entries are not always repeated. Where two headings read alike, the source gives them in different places. Where no end group is shown, it is not given here.

How the values were obtained:
[1] = system: hippocampal ISF Aβ levels; assay type: in vivo, Tg2576 mice; conditions: for ISF Aβ levels, % of baseline by 12 hours / Effect on ISF Aβ levels versus vehicle treated mice: 3-4 month old Tg2576 mice; for ISF Aβ levels, % of baseline by 12 hours: n=5; for Effect on ISF Aβ levels versus vehicle treated mice: 50 mg/kg intraperitoneal, n=8 per group
[2] = system: neuronal activity in the hippocampus; set-up: species or system Tg2576 mice; conditions: mouse, in vivo

Which “ISF Aβ levels, % of baseline by 12 hours” value ([1]; 100 nM by reverse microdialysis in hippocampus) does the source give for “CRF (SEEPPISLDLTFHLLREVLEMARAEQLAQQAHSNRKLMEII; ends and bridges not checked; UniProt P06850 154-194, looked up)” here?
The value was 138.3±7.027% and 138.3%.

And the “Time of increase of ISF Aβ levels after drug infusion” value ([1]; 100 nM in the microdialysis fluid)?
Its value is 3 h.

And the “ISF Aβ levels, % of baseline by 12 hours” value ([1]; 200 nM by reverse microdialysis in hippocampus)?
The value was 171.9±17.83% and 171.9%.

And the “Time of increase of ISF Aβ levels after drug infusion” value ([1]; 200 nM in the microdialysis fluid)?
Its value is “immediately”.

What about the “Dose dependence of increase in ISF Aβ levels” value ([1]; 100 and 200 nM by reverse microdialysis) of the same compound?
Its value is “dose-dependent manner”.

With `C[C@]12C[C@H](O)[C@H]3[C@@H](CCC4=CC(=O)CC[C@@]43C)[C@@H]1CC[C@@H]2C(=O)CO` [CORT, Corticosterone] as the compound, how does the “Effect on ISF Aβ levels versus vehicle treated mice” value [1] read?
Its value is “no difference”.

What about the “Effect on ISF Aβ levels versus vehicle treated mice” value ([1]; listed as Corticosterone) of the same compound?
Its value is “did not alter”.

For `NC1=N[C@H](O)[C@H]2[C@H]3O[C@]4(O)O[C@@H]([C@@H](O)[C@@]2(N1)[C@@H]4O)[C@]3(O)CO` [TTX, Tetrodotoxin], which “Change in ISF Aβ levels on 3 hours restraint stress given 8 hours after TTX treatment, compared to TTX-alone controls” value ([1]; mouse, in vivo) is on record?
Its value is “no significant change”.

What about the “Decrease of ISF Aβ levels over 16 hours compared to baseline” value ([1]; mouse, in vivo) of the same compound?
Its value is roughly 60%.

And the “ISF Aβ levels for an additional 12 hours in the presence of TTX” value ([1]; mouse, in vivo)?
Its value is “remained low”.

And the “ISF Aβ levels, % of baseline by 17 hours from drug treatment” value ([1]; mouse, in vivo)?
Its value is 58.5%.

And the “Effect on neuronal activity in the hippocampus” value [2]?
Its value is “almost completely blocked”.
